Laboratory results reported in article PMC7070167, “Cell‐permeable high‐affinity tracers for Gq proteins provide structural insights, reveal distinct binding kinetics and identify small molecule inhibitors” (British Journal of Pharmacology, 2020).
pIC50: −log10 of the molar value. Where two headings read alike, the source gives them in different places. *1 amine or outer side, *2 acyl side, *3 side chain or, on linkers, in order; H or OH if unused. Where a SMILES comes first, the peptide text is derived from it. Bridges are numbered along the chain shown (N, C = ends). [ ]: non-standard residue; d: D form. The star is where a group is joined. Leu(3R-O(AcLeu(3R-OH))) = CC(=O)N[C@H](C(=O)O[C@H](C(C)C)[C@H](N)C(=O)O)[C@H](O)C(C)C; Leu(3R-OH,Nα-propionyl) = CCC(=O)N[C@H](C(=O)*)[C@H](O)C(C)C; X1 = CC(C)[C@@H](O[*:3])[C@H](N[*:1])C(=O)[*:2]; NMeT = CN[C@H](C(=O)O)[C@@H](C)O; dPhLac = O=C(O)[C@H](O)Cc1ccccc1; NMeA = CN[C@@H](C)C(=O)O; NMeDha = C=C(NC)C(=O)O

Molecular target: T1, human Gα11 (Homo sapiens, UniProt P29992)
T1 construct: expressed in transfected cells; membrane preparations
T1 sequence (P29992 1-359): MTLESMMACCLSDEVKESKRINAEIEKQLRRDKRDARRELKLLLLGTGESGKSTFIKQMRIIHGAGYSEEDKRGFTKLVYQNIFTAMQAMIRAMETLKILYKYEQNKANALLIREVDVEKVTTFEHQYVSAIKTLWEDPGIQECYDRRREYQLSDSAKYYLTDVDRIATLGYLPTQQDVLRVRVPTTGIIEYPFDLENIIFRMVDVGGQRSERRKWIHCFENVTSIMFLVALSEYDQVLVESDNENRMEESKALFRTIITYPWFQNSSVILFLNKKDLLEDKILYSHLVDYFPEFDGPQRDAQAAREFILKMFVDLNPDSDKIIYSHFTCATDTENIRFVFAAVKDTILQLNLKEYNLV
Assay: Competition binding at membranes of HEK-CRISPR-Cas9-Gαq-KO cells expressing Gα11
Description: cDNAs encoding for the α‐subunits of the human G11, G14, G15 and mouse Gq guanine nucleotide‐binding proteins in a pcDNA3.1(+) vector were obtained from E. Kostenis. CRISPR/Cas9‐Gαq‐knockout (KO) HEK293 cells were from M. Yamaguchi. The protein sequences of the human and mouse Gαq proteins differ only by one amino acid in position 171 (alanine in human and serine in mouse). […]. After 16 hr, 3 ml of DMEM containing 10% FBS, 1% of a penicillin/streptomycin solution (final concentrations: penicillin = 100 U·ml^−1, streptomycin = 0.1 mg·ml^−1), and sodium butyrate (5 mM) was added to the packaging cells. They were kept at 32°C and 5% CO2 for 48 hr, during which the viral vectors containing the receptor sequence were produced and released into the surrounding medium. These were harvested, filtered ([…] filter pore diameter), and added to HEK293 cells that had previously been modified via CRISPR/Cas9 genome editing to lack Gαq expression. Polybrene solution (6 μl, 4 mg·ml^−1 in H2O, filtered) was added. After 2.5 hr, the virus‐containing medium was discarded, and DMEM supplemented with 10% FBS and 1% of a penicillin/streptomycin solution (final concentrations: penicillin = 100 U·ml^−1, streptomycin = 0.1 mg·ml^−1) was given to the cells. These were incubated for 2 days, followed by selection of successfully transfected cells with geneticin resistance by adding G418 (200 μg·ml^−1) to the medium. The cells were cultured in these media at 37°C and 10% CO2 until membrane preparations were generated.
Recombinant HEK cells were cultured to 70% of confluence. The culture medium was discarded, and cells were washed once with approximately 5 ml of PBS. Dishes were stored at −20°C until further use. After defrosting, cells were detached with a rubber scraper after adding 5‐mM Tris–HCl, 2‐mM EDTA, pH 7.4. The collected cell suspension was homogenized using an Ultra‐Turrax® for 1 min at a speed level of 4. The cell suspension was transferred into tubes and centrifuged for 10 min at 1,000 g, 4°C. The pellet (P1) was discarded, and the supernatant was centrifuged for 45 min at 48,400 g, 4°C. The resulting supernatant was discarded, and the pellet (P2) was resuspended in 50‐mM Tris–HCl, pH 7.4, and centrifuged again for 45 min at 48,400 g, 4°C. This step was repeated once again, and the suspension was subsequently homogenized using an Ultra‐Turrax® for 1 min at a speed level of 4 (IKA Laborechnik), transferred into cryovials, and stored at −80°C (for up to several months). […]
The experiments were performed in 50‐mM Tris–HCl buffer, pH 7.4. […] Non‐specific binding was determined in the presence of 5‐μM FR. […] Luma Safe® scintillation cocktail (2.5 ml) was added, and after 6 hr of incubation, the samples were counted for 1 min each, using a liquid scintillation counter (counting efficiency 53%). […]

In the case of `C=C1C(=O)N[C@@H](C)C(=O)N(C)[C@@H](C)C(=O)N[C@@H]([C@H](OC(=O)[C@@H](NC(C)=O)[C@H](O)C(C)C)C(C)C)C(=O)N(C)[C@@H]([C@@H](C)OC)C(=O)O[C@H](C)[C@H](NC(C)=O)C(=O)O[C@H](Cc2ccccc2)C(=O)N1C` [YM, YM‐254890] (Ac-T[dPhLac][NMeDha]A[NMeA][Leu(3R-O(AcLeu(3R-OH)))][NMeT](Me); ester 1-C), the “Pseudo-Bmax ± SD” value (YM versus [³H]PSB-16254 (5 nM), 37°C, G11) was 6.23 ± 2.92 pmol/mg and the IC50 (YM versus [³H]PSB-16254 (5 nM), 37°C, G11, read-out: pIC50 ± SD (converted)) was 8.71 nM.
In the case of `C=C1C(=O)N[C@@H](C)C(=O)N(C)[C@@H](C)C(=O)N[C@@H]([C@H](OC(=O)[C@@H](NC(=O)CC)[C@H](O)C(C)C)C(C)C)C(=O)N(C)[C@@H]([C@@H](C)OC)C(=O)O[C@H](C(C)C)[C@H](NC(C)=O)C(=O)O[C@H](Cc2ccccc2)C(=O)N1C` [FR, FR900359] (Ac-[X1][dPhLac][NMeDha]A[NMeA][X1](Leu(3R-OH,Nα-propionyl))[NMeT](Me); ester 1-C), the pIC50 was 7.98 and the “Pseudo-Bmax ± SD” value (FR versus [³H]PSB-15900 (5 nM), 37°C, G11) was 6.23 ± 1.39 pmol/mg.
